Test results reported in patent publication US20240100112A1, “TRADITIONAL CHINESE MEDICINE OINTMENT FOR PREVENTING AND TREATING MASTITIS IN DAIRY COWS, AND PREPARATION METHOD THEREOF” (Hunan University of Science and Engineering, priority 2022, published 2024).

System: mastitis in dairy cows
Experiment: Treatment of dairy cows with mastitis; cure judged by sodium hydroxide curdled milk test
Assay type: in vivo
Details: dairy cows with mastitis (SMT detected); ointment 2 g externally twice a day for 5 days, or penicillin 100,000 IU breast perfusion; tested one day after stopping
From the text: Fifty dairy cows with mastitis detected by Shanghai Mastitis Test (SMT) are selected from a dairy farm in Hunan Province, of which 20 cows are externally coated with the traditional Chinese medicine ointment for preventing and treating mastitis in dairy cows prepared in embodiment 1 and 20 cows are externally applied with the traditional Chinese medicine ointment for preventing and treating mastitis in dairy cows prepared in comparative example 1, with the dosage of 2 g each time, twice a day for 5 days. The remaining 10 cows are perfused with penicillin 100,000 IU after all the milk is discharged from their breasts, as a control group.
Cure standard: one day after stopping the ointments, if curdled milk is negative by the sodium hydroxide test, the cows are judged to be cured.

CC1(C)S[C@@H]2[C@H](NC(=O)Cc3ccccc3)C(=O)N2[C@H]1C(=O)O [Control group, penicillin]
Cows (head) with curdled milk being negative by sodium hydroxide test: 8 head | Cure rate (%): 80%
